Measured values: ChEMBL document CHEMBL5325403, “Benzenesulfonyl thiazoloimines as unique multitargeting antibacterial agents towards Enterococcus faecalis” (Eur J Med Chem, 2023)
In brackets after ≈: the same amount, converted by molar mass. Activity calls are given as the source filed them. The rule behind the calls is not given here.

Legend:
Staphylococcus aureus [1] = assay: Antibacterial activity against methicillin-resistant Staphylococcus aureus N315 assessed as inhibition of bacterial growth by continuous dilution method; format: functional
Enterococcus faecalis [2] = assay: Antibacterial activity against Enterococcus faecalis assessed as inhibition of bacterial growth by continuous dilution method; format: functional
Staphylococcus aureus [3] = assay: Antibacterial activity against Staphylococcus aureus assessed as inhibition of bacterial growth by continuous dilution method; format: functional
Staphylococcus aureus [4] = assay: Antibacterial activity against Staphylococcus aureus ATCC 25923 assessed as inhibition of bacterial growth by continuous dilution method; format: functional
Staphylococcus aureus [5] = assay: Antibacterial activity against Staphylococcus aureus ATCC 29213 assessed as inhibition of bacterial growth by continuous dilution method; format: functional
Klebsiella pneumoniae = assay: Antibacterial activity against Klebsiella pneumoniae assessed as inhibition of bacterial growth by continuous dilution method; format: functional
Escherichia coli [6] = assay: Antibacterial activity against Escherichia coli assessed as inhibition of bacterial growth by continuous dilution method; format: functional
Pseudomonas aeruginosa [7] = assay: Antibacterial activity against Pseudomonas aeruginosa assessed as inhibition of bacterial growth by continuous dilution method; format: functional
Acinetobacter baumannii = assay: Antibacterial activity against Acinetobacter baumannii assessed as inhibition of bacterial growth by continuous dilution method; format: functional
Pseudomonas aeruginosa [8] = assay: Antibacterial activity against Pseudomonas aeruginosa ATCC 27853 assessed as inhibition of bacterial growth by continuous dilution method; format: functional
Escherichia coli [9] = assay: Antibacterial activity against Escherichia coli ATCC 25922 assessed as inhibition of bacterial growth by continuous dilution method; format: functional
Enterococcus faecalis [10] = assay: Antibacterial activity against Enterococcus faecalis p1-2007226001 assessed as inhibition of bacterial growth by continuous dilution method; format: functional
Enterococcus faecalis [11] = assay: Antibacterial activity against Enterococcus faecalis p1-2007225053 assessed as inhibition of bacterial growth by continuous dilution method; format: functional
Enterococcus faecalis [12] = assay: Antibacterial activity against Enterococcus faecalis assessed as log reduction in bacterial growth measured after 6 hrs by continuous dilution method; format: functional
Enterococcus faecalis [13] = assay: Antibacterial activity against Enterococcus faecalis assessed as reduction in bacterial growth measured after 16 passages by continuous dilution method; format: functional, organism-based
[14] = Hemolytic activity in human RBC assessed as hemolysis at 512 times of MIC measured after 1 hr; format: toxicity, cell-based, Erythrocyte; settings: red blood cells (erythrocytes), read-out: Activity
[15] = Cytotoxicity against human NOK-SI cells assessed as cell viability rate at 20 ug/ml; format: toxicity, cell-based; settings: at 20 µg/mL, read-out: Activity
[16] = Cytotoxicity against human FHC cells assessed as cell viability rate at 20 ug/ml; format: toxicity, cell-based; settings: at 20 µg/mL, read-out: Activity
Enterococcus faecalis [17] = assay: Antibiofilm activity against Enterococcus faecalis assessed as inhibition of biofilm formation at 6 times of MIC by crystal violet staining based analysis; format: functional; parameters: scale not given: the % may be the effect or the level left
Enterococcus faecalis [18] = assay: Antibiofilm activity against Enterococcus faecalis assessed as inhibition of biofilm formation at 0.5 to 6 times of MIC by crystal violet staining based analysis; format: functional, organism-based
Cell membrane [19] = assay: Induction of cytoplasmic membrane depolarization in Enterococcus faecalis at 4 times of MIC by DiSC35 dye-based fluorescence assay; settings: time <= 80.0 min, TDE = time-dependent effect
Cell membrane [20] = assay: Induction of inner membrane permeabilization in Enterococcus faecalis at 4 times of MIC measured at 25 mins by PI staining under fluorescence microscopic analysis
Enterococcus faecalis [21] = assay: Effect on cell morphology in Enterococcus faecalis assessed as cell deformation at 2 times of MIC incubated for 4 hrs by scanning electron microscopic analysis; format: functional, organism-based
Enterococcus faecalis [22] = assay: Effect on cell morphology in Enterococcus faecalis assessed as cell shrank at 2 times of MIC incubated for 4 hrs by scanning electron microscopic analysis; format: functional, organism-based
Cell membrane [23] = assay: Disruption of cell membrane integrity in Enterococcus faecalis assessed as increase in protein leakage by Bradford assay
Enterococcus faecalis [24] = assay: Antibacterial activity against Enterococcus faecalis assessed as reduction in metabolic activity at 0.5 to 8 times of MIC by alamar blue staining based assay; format: functional, organism-based
Enterococcus faecalis [25] = assay: Induction of intracellular ROS generation in Enterococcus faecalis by DCFH-DA staining based fluorescence microscopic analysis; format: functional, organism-based
Enterococcus faecalis [26] = assay: Induction of oxidative stress in Enterococcus faecalis assessed as decrease in GSH activity at 0.5 to 16 times of MIC by Ellman's method; format: functional, organism-based
Calf thymus DNA [27] = assay: Binding affinity to calf thymus DNA assessed as compound DNA complex formation by UV-Vis spectrophotometric analysis; format: nucleic-acid assay; settings: Bos taurus
Calf thymus DNA [28] = assay: Binding affinity to calf thymus DNA assessed as compound DNA complex formation by measuring fluorescence intensity by acridine orange dye based competitive binding assay; format: nucleic-acid assay; settings: Bos taurus
Calf thymus DNA [29] = assay: Binding affinity to calf thymus DNA assessed as reduction in NR-DNA complex formation by measuring fluorescence intensity by competitive binding assay; format: nucleic-acid assay; settings: Bos taurus

Question: For `CCn1cc(C(=O)O)c(=O)c2cc(F)c(N3CCNCC3)cc21` [NORFLOXACIN], which MIC (Staphylococcus aureus [1]) is on record?
Answer: 8 µg/mL (≈ 25.1 µM)

Question: What about the MIC (Enterococcus faecalis [2]) of the same molecule?
Answer: 8 µg/mL (≈ 25.1 µM)

Question: And the MIC (Staphylococcus aureus [3])?
Answer: 4 µg/mL (≈ 12.5 µM)

Question: And the MIC (Staphylococcus aureus [4])?
Answer: 4 µg/mL (≈ 12.5 µM)

Question: And the MIC (Staphylococcus aureus [5])?
Answer: 2 µg/mL (≈ 6.26 µM)

Question: What about the MIC (Klebsiella pneumoniae) of the same molecule?
Answer: 8 µg/mL (≈ 25.1 µM)

Question: What about the MIC (Escherichia coli [6]) of the same molecule?
Answer: 16 µg/mL (≈ 50.1 µM)

Question: What about the MIC (Pseudomonas aeruginosa [7]) of the same molecule?
Answer: 2 µg/mL (≈ 6.26 µM)

Question: And the MIC (Acinetobacter baumannii)?
Answer: 4 µg/mL (≈ 12.5 µM)

Question: And the MIC (Pseudomonas aeruginosa [8])?
Answer: 2 µg/mL (≈ 6.26 µM)

Question: And the MIC (Escherichia coli [9])?
Answer: 4 µg/mL (≈ 12.5 µM)

Question: And the MIC (Enterococcus faecalis [10])?
Answer: 4 µg/mL (≈ 12.5 µM)

Question: What about the MIC (Enterococcus faecalis [11]) of the same molecule?
Answer: 8 µg/mL (≈ 25.1 µM)

Question: What does the source list for `CC(=O)Nc1ccc(S(=O)(=O)C/C(=N/NC(=O)c2ccccn2)c2nccs2)cc1`?
Answer: MIC (Staphylococcus aureus [1]): 64 µg/mL (≈ 144 µM); MIC (Enterococcus faecalis [2]): 1 µg/mL (≈ 2.25 µM); MIC (Staphylococcus aureus [3]): 4 µg/mL (≈ 9.02 µM); MIC (Staphylococcus aureus [4]): 4 µg/mL (≈ 9.02 µM); MIC (Staphylococcus aureus [5]): 256 µg/mL (≈ 577 µM); MIC (Klebsiella pneumoniae): 64 µg/mL (≈ 144 µM); MIC (Escherichia coli [6]): 32 µg/mL (≈ 72.2 µM); MIC (Pseudomonas aeruginosa [7]): 128 µg/mL (≈ 289 µM); MIC (Acinetobacter baumannii): 32 µg/mL (≈ 72.2 µM); MIC (Pseudomonas aeruginosa [8]): 32 µg/mL (≈ 72.2 µM); MIC (Escherichia coli [9]): 64 µg/mL (≈ 144 µM); MIC (Enterococcus faecalis [10]): 4 µg/mL (≈ 9.02 µM); MIC (Enterococcus faecalis [11]): 2 µg/mL (≈ 4.51 µM); Activity (Enterococcus faecalis [12]): Dose-Dependent Effect; log(activity) (Enterococcus faecalis [12]): 3; Activity (Enterococcus faecalis [13]): Active; hemolysis at 1 h, 512 times of MIC [14]: < 3%; viability at 20 ug/ml [15]: 65%; viability at 20 ug/ml [16]: 45%; Activity (Enterococcus faecalis [17]): 35%; Activity (Enterococcus faecalis [18]): Active; Activity (Cell membrane [19]): Tde; Activity (Cell membrane [20]): Active; Activity (Enterococcus faecalis [21]): Active; Activity (Enterococcus faecalis [22]): Active; Activity (Cell membrane [23]): Dose-Dependent Effect; Activity (Enterococcus faecalis [24]): Active; Activity (Enterococcus faecalis [25]): Dose-Dependent Effect; Activity (Enterococcus faecalis [26]): Active; Activity (Calf thymus DNA [27]): Active; Activity (Calf thymus DNA [28]): Active; Activity (Calf thymus DNA [29]): Active

Question: Which MIC (Staphylococcus aureus [1]) does the source give for `CC(=O)Nc1ccc(S(=O)(=O)C/C(=N/OCc2ccc(Cl)cc2Cl)c2nccs2)cc1` here?
Answer: 64 µg/mL (≈ 128 µM)

Question: What about the MIC (Enterococcus faecalis [2]) of the same molecule?
Answer: 64 µg/mL (≈ 128 µM)

Question: What about the MIC (Staphylococcus aureus [3]) of the same molecule?
Answer: 128 µg/mL (≈ 257 µM)

Question: And the MIC (Staphylococcus aureus [4])?
Answer: 128 µg/mL (≈ 257 µM)

Question: And the MIC (Staphylococcus aureus [5])?
Answer: 128 µg/mL (≈ 257 µM)

Question: And the MIC (Klebsiella pneumoniae)?
Answer: 64 µg/mL (≈ 128 µM)

Question: What about the MIC (Escherichia coli [6]) of the same molecule?
Answer: 64 µg/mL (≈ 128 µM)

Question: What about the MIC (Pseudomonas aeruginosa [7]) of the same molecule?
Answer: 64 µg/mL (≈ 128 µM)

Question: What about the MIC (Acinetobacter baumannii) of the same molecule?
Answer: 128 µg/mL (≈ 257 µM)

Question: And the MIC (Pseudomonas aeruginosa [8])?
Answer: 32 µg/mL (≈ 64.2 µM)

Question: And the MIC (Escherichia coli [9])?
Answer: 16 µg/mL (≈ 32.1 µM)

Question: What does the source list for `CC(=O)Nc1ccc(S(=O)(=O)C/C(=N/NC(=O)c2ccccc2)c2nccs2)cc1`?
Answer: MIC (Staphylococcus aureus [1]): 256 µg/mL (≈ 579 µM); MIC (Enterococcus faecalis [2]): 32 µg/mL (≈ 72.3 µM); MIC (Staphylococcus aureus [3]): 128 µg/mL (≈ 289 µM); MIC (Staphylococcus aureus [4]): 32 µg/mL (≈ 72.3 µM); MIC (Staphylococcus aureus [5]): 256 µg/mL (≈ 579 µM); MIC (Klebsiella pneumoniae): 256 µg/mL (≈ 579 µM); MIC (Escherichia coli [6]): 16 µg/mL (≈ 36.2 µM); MIC (Pseudomonas aeruginosa [7]): 128 µg/mL (≈ 289 µM); MIC (Acinetobacter baumannii): 256 µg/mL (≈ 579 µM); MIC (Pseudomonas aeruginosa [8]): 4 µg/mL (≈ 9.04 µM); MIC (Escherichia coli [9]): 64 µg/mL (≈ 145 µM)
